From patent US20250032449A1, “TREATMENT OF RHEUMATOID ARTHRITIS” (SYNACT PHARMA APS, priority 2021, published 2025)
Where two headings read alike, the source gives them in different places.

How the values were obtained:
[1] = system: aminotransferases (ALT or ALAT, AST); conditions: known effect of MTX; cited from earlier work
MC3R = conditions: cited from earlier work
macrophages = conditions: cited from earlier work
[2] = system: experimental inflammatory arthritis; conditions: oral; cited from earlier work
mouse model of arthritis = conditions: WO 2020/229297; cited from earlier work
[3] = system: mouse primary macrophages; conditions: cited from earlier work
[4] = system: newly diagnosed subjects with severe active RA (CDAI>22); assay: Phase IIa placebo-controlled study in early RA patients starting MTX: CDAI; conditions: for CDAI Baseline, group mean / CDAI Screening, group mean / CDAI Week 4, group mean / CDAI Week 2, group mean / CDAI Week 5, group mean / CDAI Difference / CDAI Difference in %: n = 31; for CDAI Baseline, group mean / CDAI Screening, group mean: before treatment; for CDAI Week 4, group mean: end of treatment; for CDAI Week 2, group mean: mid-treatment; for CDAI Week 5, group mean: one week follow-up after last dosage; for CDAI Difference / CDAI Difference in %: week 4 versus baseline
[5] = system: alanine aminotransferase/alanine transaminase (ALAT)
Description: The study population will consist of newly diagnosed subjects with severe active RA (CDAI (Clinical disease activity score)>22) who are to start up-titration with methotrexate (MTX).
Sodium, potassium, chloride, calcium, glucose, creatinine, urea, albumin, unconjugated and total bilirubin, aspartate transaminase (AST), alanine transaminase (ALT), alkaline phosphatase (ALP), gamma-glutamyl transferase (GGT) and INR. The biochemistry blood samples will be taken at all visits. A serum β-HCG pregnancy test will be taken at screening.
Safety measures (AEs, SAEs, including laboratory abnormalities) will be registered during the whole study duration.
ALAT is commonly elevated following MTX treatment.

melanocytes = conditions: cited from earlier work
[6] = steady conditions, repeated dose Phase I
peritonitis = conditions: oral, cited from earlier work
MC1R = conditions: cited from earlier work
[7] = 50 mg AP1189 (acetate salt) group
[8] = 50 mg AP1189 (acetate salt) once daily plus MTX (10-25 mg) weekly
[9] = 50 mg AP1189 (acetate salt) once daily plus MTX weekly
[10] = 100 mg AP1189 (acetate salt) group
[11] = 100 mg AP1189 (acetate salt) once daily plus MTX (10-25 mg) weekly
[12] = 100 mg AP1189 (acetate salt) once daily plus MTX weekly
[13] = 100 mg dosage AP1189 (acetate salt), with MTX
[14] = 50 mg AP1189 once daily plus MTX weekly, 2 weeks, n 32
[15] = 50 mg AP1189 once daily plus MTX weekly, 4 weeks (end of treatment), n 33
[16] = 50 mg AP1189 once daily plus MTX weekly, 5 weeks (one week after final dosage), n 32
[17] = 100 mg AP1189 once daily plus MTX weekly, 2 weeks, n 34
[18] = 100 mg AP1189 once daily plus MTX weekly, 4 weeks (end of treatment), n 33
[19] = 100 mg AP1189 once daily plus MTX weekly, 5 weeks (one week after final dosage), n 35

## CN(Cc1cnc2nc(N)nc(N)c2n1)c1ccc(C(=O)N[C@@H](CCC(=O)O)C(=O)O)cc1 [MTX, methotrexate]
[1]
  Effect on aminotransferases (transaminases): cause an increase in aminotransferases

## (E)-N-trans-{3-[1-(2-nitrophenyl)-1H-pyrrol-2-yl]-allylidene}-aminoguanidinium acetate [AP1189]
MC3R
  ERK1/2 phosphorylation: cause ERK1/2 phosphorylation
  canonical cAMP generation: does not induce canonical cAMP generation
macrophages
  Cytokine release: reduce cytokine release
[2]
  Macroscopic and histological parameters of joint disruption: significant reduction
Mouse model of arthritis
  Combined effect of AP1189 and methotrexate (MTX): synergistic effect
[3]
  Efferocytosis: proefferocytic effect
[4]; [7]
  CDAI Baseline, group mean: 36.1
  CDAI Screening, group mean: 35.6
[4]; [8]
  CDAI Week 4, group mean: 24.2
  CDAI Week 2, group mean: 29.9
  CDAI Week 5, group mean: 22.9
[4]; [9]
  CDAI Difference: −11.9
  CDAI Difference in %: 33%
[4]; [10]
  CDAI Baseline, group mean: 39
  CDAI Screening, group mean: 38.9
[4]; [11]
  CDAI Week 4, group mean: 23.9
  CDAI Week 2, group mean: 28.9
  CDAI Week 5, group mean: 21.3
[4]; [12]
  CDAI Difference: −15.1
  CDAI Difference in %: 39%
[4]; [13]
  Efficacy in treating rheumatoid arthritis (CDAI): a reduction in CDAI
[4]; both tested dosages, 50 mg and 100 mg, with MTX
  Effect in reducing CDAI: significant effect of AP1189 in reducing CDAI
[5]; [14]
  ALAT 2 weeks (share of subjects with clinical significant abnormal value): 6.3%
  ALAT CSA (Clinical significant abnormal value), number: 2
[5]; [15]
  ALAT 4 weeks (share of subjects with clinical significant abnormal value): 6.1%
  ALAT CSA (Clinical significant abnormal value), number: 2
[5]; [16]
  ALAT 5 weeks (share of subjects with clinical significant abnormal value): 6.3%
  ALAT CSA (Clinical significant abnormal value), number: 2
[5]; 50 mg dosage AP1189 (acetate salt), with MTX
  Effect on MTX-associated elevation of transaminases: did not reduce MTX-associated elevation of transaminases
[5]; [17]
  ALAT 2 weeks (share of subjects with clinical significant abnormal value): 0.0%
  ALAT CSA (Clinical significant abnormal value), number: 0
[5]; [18]
  ALAT 4 weeks (share of subjects with clinical significant abnormal value): 0.0%
  ALAT CSA (Clinical significant abnormal value), number: 0
[5]; [19]
  ALAT 5 weeks (share of subjects with clinical significant abnormal value): 0.0%
  ALAT CSA (Clinical significant abnormal value), number: 0
[5]; [13]
  Effect on MTX-associated elevation of transaminases: completely abolish the MTX-associated elevation of transaminases
[5]; dosage of 50 mg, with MTX, at 2 weeks, 4 weeks (EoT) and 5 weeks (FoV)
  ALAT change: an increase in ALAT is observed
[5]; dosage of 100 mg AP1189, with MTX
  ALAT elevation: 0.0%
melanocytes
  Melanogenesis: no melanogenesis was induced
[6]; 50 mg once daily
  C Max (mean +/− SD, N = 9): 180 ± 38 ng/mL
  C Trough (Mean +/− SD, N = 9): 46 ± 14 ng/mL
[6]; 100 mg once daily
  C Max (mean +/− SD, N = 9): 427 ± 76 ng/mL
  C Trough (Mean +/− SD, N = 9): 100 ± 25 ng/mL
[6]; 200 mg once daily
  C Max (mean +/− SD, N = 9): 893 ± 198 ng/mL
  C Trough (Mean +/− SD, N = 9): 186 ± 45 ng/mL
peritonitis
  Anti-inflammatory action in peritonitis: elicits anti-inflammatory actions
peritonitis; peritonitis
  Resolution phase: accelerated the resolution phase
MC1R
  ERK1/2 phosphorylation: cause ERK1/2 phosphorylation
  canonical cAMP generation: does not induce canonical cAMP generation
